# Assay results: patent US8802865B2 (Janssen Pharmaceutica, NV, priority 2006, dated 2014)
# Experiments:
# ventral prostate = test: Ventral Prostate Weight in vivo Assay (inhibition of testosterone-enhanced tissue weight); parameters: key: “active” in the Table below if the non weight adjusted prostate weight was ≦40 mg or the % Inhibition prostate weight, body weight adjusted was ≧40% @ 2 mg/day dosage; listed herein as “inactive” as they did not meet the specified criteria defined above; details: castrated male Sprague Dawley rats, test compound usually orally once daily with testosterone propionate s.c.; ventral prostate wet weight; criteria at 2 mg/day dosage
# Method: (§1) Ventral Prostate and Levator Ani Weight in vivo Assay
# (§2) Immature (approximately 50 g) castrated male Sprague Dawley rats (Charles River) were treated once daily for five days with test compound (usually given orally at 40 mg/kg in a volume of 0.3 mL, in 30% cyclodextrin or 0.5% methylcellulose vehicle) and with testosterone propionate (given subcutaneously by injection at the nape of the neck at 2 mg/kg, in a volume of 0.1 mL in sesame oil). On the sixth day, the rats were euthanized by asphyxiation in carbon dioxide. Ventral prostates and levator ani were removed and their wet weights determined. Test compound activity was determined as the percent inhibition of testosterone-enhanced tissue weights, with a vehicle-treated control group set to zero percent and a testosterone alone-treated control group set to 100%.
# (§3) Mature (150- to 200-g) castrated male Sprague Dawley rats (Charles River) are similarly tested according to the procedure described above. The rats were dosed for two weeks, with 0.4 mg/kg testosterone propionate used as the positive control.
# (§4) Representative compounds of the present invention were tested according to the procedure described above, with results as listed in Table 3 below. For effect on prostate—i.e. an antagonist—a test compound is listed as “active” in the Table below if the non weight adjusted prostate weight was ≦40 mg or the % Inhibition prostate weight, body weight adjusted was ≧40% @ 2 mg/day dosage. For effect on levator ani—i.e. an agonist—a test compound is listed as “active” in the Table below if the non weight adjusted levator ani weight was ≧40 mg or the % Stimulation levator ani weight, body weight adjusted was ≧40% at 2 mg/day dosage.
# levator ani = test: Levator Ani Weight in vivo Assay (stimulation of levator ani weight); parameters: key: “active” in the Table below if the non weight adjusted prostate weight was ≦40 mg or the % Inhibition prostate weight, body weight adjusted was ≧40% @ 2 mg/day dosage; listed herein as “inactive” as they did not meet the specified criteria defined above; details: castrated male Sprague Dawley rats, test compound usually orally once daily with testosterone propionate s.c.; levator ani wet weight; criteria at 2 mg/day dosage
# Method: as §1, §2, §3, §4
Compound,Prostate antagonist (ventral prostate),L.A. agonist (levator ani)
"FC(F)(F)C1(c2nc3cc(Cl)c(Cl)cc3[nH]2)OCC(CCl)O1 (stereo not shown) [Compound 50, 5,6-Dichloro-2-(4-chloromethyl-2-trifluoromethyl-[1,3]dioxolan-2-yl)-1H-benzimidazole]",active,–
"CCn1c(C2(C(F)(F)F)OCCO2)nc2cc(Cl)c(Cl)cc21 [Compound 56, 5,6-Dichloro-1-ethyl-2-(2-trifluoromethyl-[1,3]dioxolan-2-yl)-1H-benzoimidazole]",active,–
"C=CC(C)(C)C(O)(c1nc2cc(Cl)c(Cl)cc2[nH]1)C(F)(F)F (stereo not shown) [Compound 25, 2-(5,6-Dichloro-1H-benzoimidazol-2-yl)-1,1,1-trifluoro-3,3-dimethyl-pent-4-en-2-ol]",active,inactive
"C=CC(O)(c1nc2cc(Cl)c(Cl)cc2[nH]1)C(F)(F)F (single isomer, unassigned; (-)) [Compound 44, (−)-2-(5,6-dichloro-1H-benzoimidazol-2-yl)-1,1,1-trifluoro-but-3-en-2-ol]",inactive,inactive
"C=CCn1c(C2(C(F)(F)F)OCCO2)nc2cc(Cl)c(Cl)cc21 [Compound 55, 1-Allyl-5,6-dichloro-2-(2-trifluoromethyl-[1,3]dioxolan-2-yl)-1H-benzoimidazole]",active,–
"FC(F)(F)C1(c2nc3cc(Cl)c(Cl)cc3[nH]2)NCCN1 [Compound 60, 5,6-Dichloro-2-(2-trifluoromethyl-imidazolidin-2-yl)-1H-benzimidazole]",active,–
"OCC1COC(c2nc3cc(Cl)c(Cl)cc3[nH]2)(C(F)(F)F)O1 (stereo not shown) [Compound 49, [2-(5,6-Dichloro-1H-benzoimidazol-2-yl)-2-trifluoromethyl-[1,3]dioxolan-4-yl]-methanol]",active,inactive
"FC(F)(F)C1(c2nc3cc(Cl)c(Cl)cc3[nH]2)OCCCO1 [Compound 51, 5,6-Dichloro-2-(2-trifluoromethyl-[1,3]dioxan-2-yl)-1H-benzimidazole]",active,inactive
"C=C(CC(O)(c1nc2cc(Cl)c(Cl)cc2[nH]1)C(F)(F)F)C(=O)O (stereo not shown) [Compound 27, 2-[2-(5,6-Dichloro-1H-benzoimidazol-2-yl)-3,3,3-trifluoro-2-hydroxy-propyl]-acrylic acid]",inactive,inactive
"C/C=C/C(O)(c1nc2cc(Cl)c(Cl)cc2[nH]1)C(F)(F)F (stereo not drawn) [Compound 16, 2-(5,6-Dichloro-1H-benzoimidazol-2-yl)-1,1,1-trifluoro-trans-pent-3-en-2-ol]",active,inactive
"N#CCn1c(C2(C(F)(F)F)OCCO2)nc2cc(Cl)c(Cl)cc21 [Compound 53, [5,6-Dichloro-2-(2-trifluoromethyl-[1,3]dioxolan-2-yl)-benzoimidazol-1-yl]-acetonitrile]",active,–
C=CC(C)C(O)(c1nc2cc(Cl)c(Cl)cc2[nH]1)C(F)(F)F (stereo not shown) [Compound 26],active,inactive
"CC(C)=C(C)C(O)(c1nc2cc(Cl)c(Cl)cc2[nH]1)C(F)(F)F (stereo not shown) [Compound 42, 2-(5,6-Dichloro-1H-benzoimidazol-2-yl)-1,1,1-trifluoro-3,4-dimethyl-pent-3-en-2-ol]",active,inactive
"C=CCC(O)(c1nc2cc(Cl)c(Cl)cc2[nH]1)C(F)(F)F (single isomer, unassigned; (+)) [Compound 23, (+)-Enantiomer of 2-(5,6-Dichloro-1H-benzoimidazol-2-yl)-1,1,1-trifluoro-pent-4-en-2-ol]",active,inactive
"C=C=C(C)C(O)(c1nc2cc(C#N)c(C(F)(F)F)cc2[nH]1)C(F)(F)F (stereo not shown) [Compound 41, 2-(1-Hydroxy-2-methyl-1-trifluoromethyl-buta-2,3-dienyl)-6-trifluoromethyl-1H-benzoimidazole-5-carbonitrile]",active,inactive
"N#Cc1cc2nc(C3(C(F)(F)F)OCCO3)[nH]c2cc1C(F)(F)F [Compound 59, 6-Trifluoromethyl-2-(2-trifluoromethyl-[1,3]dioxolan-2-yl)-1H-benzimidazole-5-carbonitrile]",active,inactive

Compound,Prostate antagonist (ventral prostate),L.A. agonist (levator ani)
"CC(C)=CC(O)(c1nc2cc(Cl)c(Cl)cc2[nH]1)C(F)(F)F (stereo not shown) [Compound 14, 2-(5,6-Dichloro-1H-benzoimidazol-2-yl)-1,1,1-trifluoro-4-methyl-pent-3-en-2-ol]",active,inactive
"C#CCC(O)(c1nc2cc(Cl)c(Cl)cc2n1C)C(F)(F)F (stereo not shown) [Compound 35, 2-(5,6-Dichloro-1-methyl-1H-benzoimidazol-2-yl)-1,1,1-trifluoro-pent-4-yn-2-ol]",inactive,–
"C=C(C)CC(O)(c1nc2cc(Cl)c(Cl)cc2[nH]1)C(F)(F)F (stereo not shown) [Compound 13, 2-(5,6-Dichloro-1H-benzoimidazol-2-yl)-1,1,1-trifluoro-4-methyl-pent-4-en-2-ol]",active,inactive
"Cn1c(C2(C(F)(F)F)OCCO2)nc2cc(Cl)c(Cl)cc21 [Compound 52, 5,6-Dichloro-1-methyl-2-(2-trifluoromethyl-[1,3]dioxolan-2-yl)-1H-benzoimidazole]",inactive,–
"FC(F)(F)C1(c2nc3cc(Cl)c(Cl)cc3[nH]2)OCCO1 [Compound 47, 5,6-Dichloro-2-(2-trifluoromethyl-[1,3]dioxolan-2-yl)-1H-benzimidazole]",active,–
"OC(c1ccccc1)(c1nc2cc(Cl)c(Cl)cc2[nH]1)C(F)(F)F (stereo not shown) [Compound 10, 1-(5,6-Dichloro-1H-benzoimidazol-2-yl)-2,2,2-trifluoro-1-phenyl-ethanol]",active,inactive
"COC(=O)Cn1c(C2(C(F)(F)F)OCCO2)nc2cc(Cl)c(Cl)cc21 [Compound 57, [5,6-Dichloro-2-(2-trifluoromethyl-[1,3]dioxolan-2-yl)-benzoimidazol-1-yl]-acetic acid methyl ester]",inactive,–
"CC#CC(O)(c1nc2cc(Cl)c(Cl)cc2[nH]1)C(F)(F)F (stereo not shown) [Compound 8, 2-(5,6-Dichloro-1H-benzoimidazol-2-yl)-1,1,1-trifluoro-pent-3-yn-2-ol]",active,inactive
"OC(CC#Cc1ccccc1)(c1nc2cc(Cl)c(Cl)cc2[nH]1)C(F)(F)F (stereo not shown) [Compound 34, 2-(5,6-Dichloro-1H-benzoimidazol-2-yl)-1,1,1-trifluoro-5-phenyl-pent-4-yn-2-ol]",inactive,inactive
"C=CCC(O)(c1nc2cc(Cl)c(Cl)cc2[nH]1)C(F)(F)F (single isomer, unassigned; (-)) [Compound 24, (−)-Enantiomer of 2-(5,6-Dichloro-1H-benzoimidazol-2-yl)-1,1,1-trifluoro-pent-4-en-2-ol]",active,inactive
"FC(F)(F)C1(c2nc3cc(Cl)c(Cl)cc3[nH]2)NCCO1 (stereo not shown) [Compound 61, 5,6-Dichloro-2-(2-trifluoromethyl-oxazolidin-2-yl)-1H-benzimidazole]",active,inactive
"C#CCC(O)(c1nc2cc(C#N)c(C(F)(F)F)cc2[nH]1)C(F)(F)F (stereo not shown) [Compound 39, 2-(1-Hydroxy-1-trifluoromethyl-but-3-ynyl)-6-trifluoromethyl-1H-benzoimidazole-5-carbonitrile]",active,inactive
"C=CCCC(O)(c1nc2cc(Cl)c(Cl)cc2[nH]1)C(F)(F)F (stereo not shown) [Compound 40, 2-(5,6-Dichloro-1H-benzoimidazol-2-yl)-1,1,1-trifluoro-hex-5-en-2-ol]",active,–
"OCC#CC(O)(c1nc2cc(Cl)c(Cl)cc2[nH]1)C(F)(F)F (stereo not shown) [Compound 17, 4-(5,6-Dichloro-1H-benzoimidazol-2-yl)-5,5,5-trifluoro-pent-2-yne-1,4-diol]",active,inactive
"C=C=C(CC)C(O)(c1nc2cc(Cl)c(Cl)cc2[nH]1)C(F)(F)F (stereo not shown) [Compound 62, 2-(5,6-Dichloro-1H-benzoimidazol-2-yl)-3-ethyl-1,1,1-trifluoro-penta-3,4-dien-2-ol]",active,–
"C#CCn1c(C2(C(F)(F)F)OCCO2)nc2cc(Cl)c(Cl)cc21 [Compound 54, 5,6-Dichloro-1-prop-2-ynyl-2-(2-trifluoromethyl-[1,3]dioxolan-2-yl)-1H-benzoimidazole]",active,–
